The subject of assay [1] is LM2 and MDA-MB-231 breast cancer cell lines. Kind of assay: PAICS 2D cell proliferation assay (CellTiter-Glo viability, 72 h). Type of assay: cell-based. To be noted: Homo sapiens; 72 h incubation; cell line not given. How it is done:
PAICS 2D Cell Proliferation Assay
Frozen cryovial stocks of LM2 and MDA-MB-231 breast cancer cell lines were thawed and cultured in 4.5 g/L glucose DMEM (31966-047, Invitrogen) supplemented with 10% Fetal Bovine Serum (10500-064, Invitrogen) until confluent in a T175 flask. Cells were incubated at 37° C. with 5% CO2 in a humidified incubator.
Cells were collected from T175 flasks by washing with PBS (10010-056, Invitrogen) and dissociated using Accutase (A6964, Sigma Aldrich). This was followed by centrifuging (1200 rpm, 5 min) and resuspending the cells in 10 ml of media containing 1% penicillin/streptomycin (15140-122, Invitrogen). Cells were counted by trypan blue exclusion method using an automated cell counter (Cellometer) and diluted to a concentration of 40,000/ml. 1000 cells were then seeded into 384-well white-walled plates (Corning, 3707) in a volume of 25 μl. Plates were Incubated overnight at 37° C. with 5% CO2.
After 24 hours, PAICS compounds were added onto the assay plates using an HP D300 Digital Dispenser (Hewlett Packard). 10 mM stocks were used and dispensed as a 10 point concentration response curve (CRC) ½ log dilution series with a final top concentration of 100 μM. Controls were added onto each plate: positive controls included Staurosporine CRC (100 μM stock dispensed as a 10 point CRC ½ log dilution series with a final top concentration of 1 μM) and PAICS compound MRT00211919 (10 mM stock dispensed as a 10 point CRC ½ log dilution series with a final top concentration of 100 μM); a high control of Staurosporine (0.1 μM (LM2), 0.316 μM (MDA-MB-231) FAC) and a low control of media containing 1% DMSO. A final concentration of 1% DMSO was then added across the plates for normalisation. Following compound addition, assay plates were incubated for 72 hours at 37° C. with 5% CO2.
Day 5—Cytotoxicity and Cell Viability Assays
After 72 h incubation, dead and viable cells were measured in each assay plate. Cytotoxicity was assessed through fluorescent DNA staining using the CellTox™ Green Cytotoxicity Assay kit (G8743, Promega) following the manufacturer's multiplexing protocol. Impaired cell membrane integrity results in the access of dye to stain DNA allowing quantification of dead cells. Cell viability was determined following ATP quantification using the CellTiter-Glo® Luminescent Cell Viability Assay kit (G7572, Promega) following the manufacturer's protocol. ATP released from lysed cells allowed for the generation of a signal proportional to the number of cells present in the well. All endpoint reads were performed using the PheraSTAR Plus (BMG Labtech). Data is expressed as % viable cells and % dead cells against controls (mean±SEM of duplicate curves).

For another assay, the target named is WT full length PAICS (Homo sapiens (Human), UniProt P22234). Kind of assay: Biochemical assay to measure PAICS activity (Transcreener ADP2 FI). To be noted: SAICAR synthetase reaction, ADP detection, 30 min pre-incubation. An excerpt: Biochemical Assay to Measure PAICS Activity
The biochemical assay was used to measure PAICS SAICAR synthetase-mediated conversion of CAIR, aspartic acid and ATP to SAICAR, ADP and inorganic phosphate (Pi), post-AIR/CAIR equilibration (see FIG. 3). This was achieved by detecting the ADP generated during the reaction, using Bellbrook Lab's Transcreener ADP^2 FI assay. An increase in the fluorescence intensity is directly proportional to the amount of PAICS activity.
The Transcreener ADP^2 FI assay is a homogeneous competitive displacement fluorescence intensity assay which uses direct immunodetection of ADP. Displacement of the tracer by ADP causes an increase in the fluorescence at excitation 590 nm and emission 617 nm (FIG. 3).
5 μl WT full length PAICS (final assay concentration, fac, 2.5 nM) in basic buffer, added to black, non-binding, 384-well plates (Corning #3575), columns 1 to 22. 5 μl basic buffer was added to columns 23+24 (negative control). PAICS stock at 31.9 μM from the PI's lab (Steve Firestine). Basic buffer contained 50 mM Tris-HCl pH8 and 0.5 mM EDTA, fac.
1 μl compound in 100% DMSO added per well, or 1 μl 100% DMSO to positive controls (columns 1+2) and negative controls (columns 23+24). Final assay top concentration of compound either 1 mM or 30-μM, serially diluted with half-log dilutions across the plate in duplicate (one 10-point concentration response curve across wells 3 to 12, another across 13 to 22). Compounds pre-incubated with PAICS enzyme for 30 mins at RT. 2 μl CAIR added (fac 10 μM) in basic buffer plus 25 mM MgCl2 and 50 mM KHCO3 fac to all wells. CAIR stock 50 mM from Steve Firestine's lab. 1 hr RT incubation for AIR-CAIR equilibration. NB: ˜50% CAIR is decarboxylated during equilibration therefore 5 μM remains for the synthetase reaction.
2 μl ATP/aspartic acid added (fac 30 μM/180 μM) in reaction buffer to all wells. 30 mins RT incubation for appropriate level of ATP turnover. Reaction buffer contained basic buffer plus 10 mM DTT, 0.01% BSA and 0.01% Brij 35, fac.
10 μl ADP detection reagent added to all wells (as per instructions, Transcreener ADP^2 FI kit, BellBrook Labs #3013-10K). Incubation for 1 h at RT to allow antibody equilibration. Fluorescence intensity determined using a Tecan Safire2 (excitation at 590 nm, emission at 617 nm).

Experimental findings from patent US10961233B2 (LIFEARC, priority 2016, dated 2021) are described below.

pEC50, pIC50: −log10 of the molar value.

Sequence of WT full length PAICS (P22234 whole entry): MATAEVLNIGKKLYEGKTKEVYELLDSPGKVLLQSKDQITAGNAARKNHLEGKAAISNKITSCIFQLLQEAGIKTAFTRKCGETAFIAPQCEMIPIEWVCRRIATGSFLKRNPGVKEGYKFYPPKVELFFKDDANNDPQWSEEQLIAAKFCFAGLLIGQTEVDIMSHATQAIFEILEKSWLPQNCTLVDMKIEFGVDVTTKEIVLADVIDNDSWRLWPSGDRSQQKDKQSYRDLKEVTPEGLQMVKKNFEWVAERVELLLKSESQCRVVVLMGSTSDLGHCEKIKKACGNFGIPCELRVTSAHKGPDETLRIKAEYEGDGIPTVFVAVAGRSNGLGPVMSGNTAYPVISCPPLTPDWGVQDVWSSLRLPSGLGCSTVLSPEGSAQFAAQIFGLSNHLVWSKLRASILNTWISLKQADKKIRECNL

The compound `Nc1nc(C(=O)Nc2cc(N3CCN(C(=O)OCC4CNC4)CC3)ccc2Cl)co1` [Example 19, Azetidin-3-ylmethyl 4-(3-(2-aminooxazole-4-carboxamido)-4-chlorophenyl) piperazine-1-carboxylate] gave a pEC50 in assay [1] of 6.00 to 6.30. In addition, the pIC50 on WT full length PAICS was under 7.00.
In the same order, the values of `CN(C)CCN1CCN(c2ccc(Br)c(NC(=O)c3coc(N)n3)c2)CC1=O` [Example 45] are 6.30 to 6.60 and 7.60 to 8.00.
As for `CNCCCS(=O)(=O)N1CCN(c2ccc(Cl)c(NC(=O)c3coc(N)n3)c2)CC1` [Example 73, 2-Amino-N-[2-chloro-5-(4-{[3-(methylamino)propyl]sulfonyl}piperazin-1-yl)phenyl]-1,3-oxazole-4-carboxamide], the pEC50 in assay [1] is 6.30 to 6.60. For the same compound, at WT full length PAICS, the pIC50 was 7.60 to 8.00.
For `CC(C)NCCCS(=O)(=O)N1CCN(c2ccc(Cl)c(NC(=O)c3coc(N)n3)c2)CC1` [Example 72, 2-Amino-N-[2-chloro-5-(4-{[3-(propan-2-ylamino)propyl]sulfonyl}piperazin-1-yl)phenyl]-1,3-oxazole-4-carboxamide], in assay [1], the pEC50 is 6.60 to 7.00. On WT full length PAICS, this compound gave a pIC50 of over 8.00.
`CN1CC(CN2CCN(c3ccc(Br)c(NC(=O)c4coc(N)n4)c3)CC2=O)C1` [Example 44] showed a pEC50 in assay [1] of 6.00 to 6.30. In addition, the pIC50 on WT full length PAICS is 7.60 to 8.00.
`Nc1nc(C(=O)Nc2cc(N3CCN(S(=O)(=O)C4CCNCC4)CC3)ccc2Cl)co1` [Example 86, 2-Amino-N-{2-chloro-5-[4-(piperidin-4-ylsulfonyl)piperazin-1-yl]phenyl}-1,3-oxazole-4-carboxamide]: in assay [1], the pEC50 was 6.30 to 6.60. Moreover, the pIC50 against WT full length PAICS was 7.60 to 8.00.
In turn, `CN1CC(OC(=O)N2CCN(c3ccc(Cl)c(NC(=O)c4coc(N)n4)c3)CC2)C1` [Example 34, 1-Methylazetidin-3-yl 4-(3-{[(2-amino-1,3-oxazol-4-yl)carbonyl]amino}-4-chlorophenyl)piperazine-1-carboxylate] gave a pEC50 in assay [1] of 6.00 to 6.30. For the same compound, the pIC50 against WT full length PAICS was 7.00 to 7.60.
The like results for `CN1CCC(S(=O)(=O)N2CCN(c3ccc(Cl)c(NC(=O)c4coc(N)n4)c3)CC2)CC1` [Example 87, 2-Amino-N-{2-chloro-8-(4-[(1-methylpiperidin-4-yl)sulfonyl]piperazin-1-yl}phenyl)-1,3-oxazole-4-carboxamide] were, in that order, 6.30 to 6.60 and 7.60 to 8.00.
On to `CN1CCC(NCCS(=O)(=O)N2CCN(c3ccc(Br)c(NC(=O)c4coc(N)n4)c3)CC2)CC1` [Example 64, 2-Amino-N-{2-bromo-5-[4-({2-[(1-methylpiperidin-4-yl)amino]ethyl}sulfonyl)piperazin-1-yl]phenyl}-1,3-oxazole-4-carboxamide], for which the negative-log EC50 (pEC50) in assay [1] was 6.60 to 7.00. On WT full length PAICS, this compound had a negative-log IC50 (pIC50) of over 8.00.
The like results for `Nc1nc(C(=O)Nc2cc(N3CCN(C(=O)OC4CCNC4)CC3)ccc2Cl)co1` (stereo not drawn) [Example 32, Pyrrolidin-3-yl 4-(3-{[(2-amino-1,3-oxazol-4-yl)carbonyl]amino}-4-chlorophenyl)piperazine-1-carboxylate] were, in that order, 6.00 to 6.30 and 7.00 to 7.60.
`Nc1nc(C(=O)Nc2cc(N3CCN(C(=O)OCCNC4CC4)CC3)ccc2Cl)co1` [Example 35, 2-(Cyclopropylamino)ethyl 4-(3-{[(2-amino-1,3-oxazol-4-yl)carbonyl]amino}-4-chlorophenyl)piperazine-1-carboxylate] gave a negative-log EC50 (pEC50) in assay [1] of 6.00 to 6.30. In addition, the pIC50 on WT full length PAICS is 7.00 to 7.60.
For `CN(C)CCCOC(=O)N1CCN(c2ccc(Cl)c(NC(=O)c3coc(N)n3)c2)CC1` [Example 29, 3-(Dimethylamino)propyl 4-(3-{[(2-amino-1,3-oxazol-4-yl)carbonyl]amino}-4-chlorophenyl)piperazine-1-carboxylate], the pEC50 in assay [1] was 6.00 to 6.30. The same compound had a pIC50 against WT full length PAICS of 7.00 to 7.60.
Regarding `Nc1nc(C(=O)Nc2cc(N3CCN(S(=O)(=O)C4CCNCC4)CC3)ccc2Br)co1` [Example 84], the pEC50 in assay [1] was 6.60 to 7.00. Also, the negative logarithm of the IC50 (pIC50) against WT full length PAICS is over 8.00.
In the same order, the values of `CN(C)CCS(=O)(=O)N1CCN(c2ccc(Cl)c(NC(=O)c3coc(N)n3)c2)CC1` [Example 57, 2-Amino-N-[2-chloro-5-(4-{[2-(dimethylamino)ethyl]sulfonyl}piperazin-1-yl)phenyl]-1,3-oxazole-4-carboxamide] are 6.00 to 6.30 and 7.60 to 8.00.
As to `CN(C)CCNCCS(=O)(=O)N1CCN(c2ccc(Cl)c(NC(=O)c3coc(N)n3)c2)CC1` [Example 60], the negative-log EC50 (pEC50) in assay [1] was 6.30 to 6.60. On WT full length PAICS, this compound gave a pIC50 of 7.60 to 8.00.
The like results for `CCCNCCS(=O)(=O)N1CCN(c2ccc(Cl)c(NC(=O)c3coc(N)n3)c2)CC1` [Example 66, 2-Amino-N-[2-chloro-5-(4-{[2-(propylamino)ethyl]sulfonyl}piperazin-1-yl)phenyl]-1,3-oxazole-4-carboxamide] were, in that order, 6.60 to 7.00 and 7.60 to 8.00.
In the same order, the values of `NCCS(=O)(=O)N1CCN(c2ccc(Cl)c(NC(=O)c3coc(N)n3)c2)CC1` [Example 53, 2-Amino-N-(5-(4-(2-aminoethylsulfonyl)piperazin-1-yl)-2-chlorophenyl) oxazole-4-carboxamide] are 6.00 to 6.30 and 7.00 to 7.60.
Consider `CCNCCS(=O)(=O)N1CCN(c2ccc(Cl)c(NC(=O)c3coc(N)n3)c2)CC1` [Example 65, 2-Amino-N-[2-chloro-5-(4-{[2-(ethylamino)ethyl]sulfonyl}piperazin-1-yl)phenyl]-1,3-oxazole-4-carboxamide], for which the negative-log EC50 (pEC50) in assay [1] is 6.60 to 7.00. At WT full length PAICS, this compound gave a negative logarithm of the IC50 (pIC50) of 7.60 to 8.00.
The like results for `CN1CCN(CCS(=O)(=O)N2CCN(c3ccc(Cl)c(NC(=O)c4coc(N)n4)c3)CC2)CC1` [Example 59, 2-Amino-N-[2-chloro-5-(4-{[2-(4-methylpiperazin-1-yl)ethyl]sulfonyl}piperazin-1-yl)phenyl]-1,3-oxazole-4-carboxamide] were, in that order, 6.30 to 6.60 and 7.60 to 8.00.
In the same order, the values of `CN(C)CCS(=O)(=O)N1CCN(c2ccc(Br)c(NC(=O)c3coc(N)n3)c2)CC1` [Example 54, 2-Amino-N-[2-bromo-5-(4-{[2-(dimethylamino)ethyl]sulfonyl}piperazin-1-yl)phenyl]-1,3-oxazole-4-carboxamide] are 6.60 to 7.00 and over 8.00.
In the same order, the values of `CN(C)CCCN1CCN(c2ccc(Cl)c(NC(=O)c3coc(N)n3)c2)CC1=O` [Example 46, 2-Amino-N-(2-chloro-5-{4-[3-(dimethylamino)propyl]-3-oxopiperazin-1-yl}phenyl)-1,3-oxazole-4-carboxamide] are 6.00 to 6.30 and under 7.00.
